We go through 14 compounds from patent US12319655B2, “RAF kinase inhibitors and methods of use thereof” (Deciphera Pharmaceuticals, LLC, priority 2021, dated 2025).

SMILES strings stand for the structures.

The target of assay [1] is A-Raf kinase (SEQ. ID No: 1) (Homo sapiens (Human), UniProt P10398, Y301D/Y302D). Kind of assay: Biochemical Assay for A-Raf (1). The note with it: Table J, assay version (1); read-out: ARAF (1) IC50. A digest of the protocol: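 A-Raf Y301D/Y302D at 5.55 nM phosphorylates 30.1 nM MEK with 1 mM ATP in pH 7.5 Tris buffer, 1% DMSO. Activity was read continuously as NADH oxidation at 340 nm in a pyruvate kinase/lactate dehydrogenase coupled system for 6 h at 30 °C. Rates from 4–5 h were converted to percent inhibition, and IC50 came from a four-parameter fit.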
Sequence of A-Raf kinase (SEQ. ID No: 1) (P10398 other isoform, or with tags, fused parts or gaps Y301D (already in the parent)/Y302D (already in the parent)): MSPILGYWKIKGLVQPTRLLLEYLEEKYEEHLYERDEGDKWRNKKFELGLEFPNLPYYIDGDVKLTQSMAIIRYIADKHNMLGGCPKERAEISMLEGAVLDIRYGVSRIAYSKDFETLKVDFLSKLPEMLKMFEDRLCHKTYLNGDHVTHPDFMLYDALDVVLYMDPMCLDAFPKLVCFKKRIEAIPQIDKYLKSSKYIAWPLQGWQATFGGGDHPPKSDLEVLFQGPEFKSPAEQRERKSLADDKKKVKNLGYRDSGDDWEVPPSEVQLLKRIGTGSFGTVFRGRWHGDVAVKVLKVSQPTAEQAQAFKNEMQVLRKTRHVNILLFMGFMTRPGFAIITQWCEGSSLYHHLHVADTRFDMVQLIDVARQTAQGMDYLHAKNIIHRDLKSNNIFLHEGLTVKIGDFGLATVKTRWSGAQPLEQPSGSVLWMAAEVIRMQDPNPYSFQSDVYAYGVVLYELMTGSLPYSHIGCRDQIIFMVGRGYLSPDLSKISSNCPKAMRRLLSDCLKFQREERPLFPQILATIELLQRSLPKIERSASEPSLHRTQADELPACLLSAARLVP

The subject of another assay is A375 cells. Kind of assay: A375 Cell Proliferation Assay (1). It is filed as cell-based. The following applies: Homo sapiens, A-375. In a few lines:
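Resazurin fluorescence (excitation 540 nm, emission 600 nm, after a further 5-6 h) gave IC50s from triplicate compound dilution series.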

A further assay concerns Miapaca-2 cells. Kind of assay: MiaPaca-2 Cell Proliferation Assay (1). Type of assay: cell-based. The note with it: Homo sapiens, MIA PaCa-2, single agent, read-out: MiaPaca2 (1) IC50. In a few lines: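 Resazurin was added after compound exposure and incubated 5-6 h, then fluorescence read at 540 nm excitation and 600 nm emission to give IC50.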
For another assay, the system named is H2405 cells. Put plainly: H2405 Cell Proliferation Assay (1). It is filed as cell-based. The note with it: Homo sapiens, NCI-H2405. In a few lines: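 Viability was read by resazurin reduction (ex 540 nm, em 600 nm; 5-6 h with 40 μL of 440 μM stock) after 67-72 h compound exposure at 37 °C.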

Turning to `COC(C)(C)c1cc(C(=O)Nc2cnc(C)c(-c3cccc(-c4cc(NC(=O)C5CC5)ncn4)c3)c2)ccn1` [Example 274], the IC50 (usually the midpoint of a concentration-inhibition curve) is 1000 to 10000 nM in assay [1], no more than 100 nM in the assay on A375 cells, 1000 to 10000 nM with Miapaca-2 cells and no more than 100 nM with H2405 cells.

For the compound `CC(=O)Nc1cc(-c2cc(-c3cc(NC(=O)c4ccnc(C(C)(C)C#N)c4)ccc3C)ccn2)ccn1` [Example 19], the IC50 in assay [1] is 500 to 1000 nM; with A375 cells, no more than 100 nM; in the assay on Miapaca-2 cells, 100 to 500 nM; with H2405 cells, no more than 100 nM.

For `CC(=O)Nc1cc(-c2cc(-c3cc(NC(=O)c4ccnc(C(F)(F)F)c4)ccc3C)cc(N3CCOCC3)n2)ccn1` [Example 15], the IC50 in assay [1] was 1000 to 10000 nM; with A375 cells it was no more than 100 nM; with Miapaca-2 cells, 1000 to 10000 nM; with H2405 cells, no more than 100 nM.

`Cc1ccc(NC(=O)c2ccnc(C3(C#N)CC3)c2)cc1-c1nccc(-c2ccnc(NC(=O)C3CC3)c2)n1` [Example 187]: the IC50 in assay [1] was 100 to 500 nM; in the assay with A375 cells, no more than 100 nM; in the assay on Miapaca-2 cells, 1000 to 10000 nM; with H2405 cells, 100 to 500 nM.

Consider `Cc1ccc(NC(=O)c2ccnc(C(C)(C)C#N)c2)cc1-c1cc(-c2ccnc(NC(=O)C3CC3)c2)cnn1` [Example 245], for which the IC50 in assay [1] is 500 to 1000 nM; in the assay with A375 cells, no more than 100 nM; with Miapaca-2 cells, 1000 to 10000 nM; with H2405 cells, no more than 100 nM.

With `Cc1ccc(NC(=O)c2ccnc(C(C)(C)C#N)c2)cc1-c1ccnc(-c2ccnc(NC(=O)C3(C#N)CC3)c2)n1` [Example 241], the IC50 in assay [1] was 1000 to 10000 nM; in the assay on A375 cells it was no more than 100 nM; in the assay with Miapaca-2 cells, 500 to 1000 nM; in the assay on H2405 cells it was no more than 100 nM.

Regarding `CNC(=O)c1cc(-c2cc(-c3cc(NC(=O)c4ccnc(C5(C#N)CC5)c4)ccc3C)ccn2)ccn1` [Example 265], the IC50 in assay [1] was 1000 to 10000 nM; in the assay with A375 cells it was no more than 100 nM; with Miapaca-2 cells it was 1000 to 10000 nM; in the assay with H2405 cells, no more than 100 nM.

For the compound `CNC(=O)c1cc(-c2cc(-c3cc(NC(=O)c4cccc(C(C)(C)C#N)c4)ccc3C)cc(OCCO)n2)ccn1` [Example 231], the IC50 in assay [1] was 1000 to 10000 nM; in the assay on A375 cells, no more than 100 nM; in the assay on Miapaca-2 cells, 1000 to 10000 nM; in the assay with H2405 cells, no more than 100 nM.

`Cc1ccc(NC(=O)c2ccnc(C(C)(C)C#N)c2)cc1-c1cnnc(-c2ccnc(NC(=O)C3CC3)c2)c1` [Example 230]: the IC50 in assay [1] is 1000 to 10000 nM; in the assay on A375 cells, no more than 100 nM; in the assay on Miapaca-2 cells it was 500 to 1000 nM; in the assay with H2405 cells it was no more than 100 nM.

For the compound `CNC(=O)c1cc(-c2cccc(-c3cc(NC(=O)c4ccnc(C(C)(C)C#N)c4)cnc3C)c2)ncn1` [Example 204], the IC50 was 1000 to 10000 nM in assay [1], 100 to 500 nM in the assay with A375 cells, 1000 to 10000 nM in the assay on Miapaca-2 cells and 100 to 500 nM with H2405 cells.

`Cc1ncc(NC(=O)c2ccnc(C3CC3)c2)cc1-c1cnc(C)c(-c2ccnc(NC(=O)C3CC3)c2)c1` [Example 256]: the IC50 lay in the range of 1000 to 10000 nM in assay [1], 500 to 1000 nM in the assay with A375 cells, 1000 to 10000 nM in the assay with Miapaca-2 cells and 100 to 500 nM with H2405 cells.

With `Cc1ncc(NC(=O)c2ccnc(C3CC3)c2)cc1-c1ccnc(-c2ccnc(NC(=O)C3CC3)c2)c1` [Example 253], the IC50 in assay [1] lay within 1000 to 10000 nM; in the assay on A375 cells, 100 to 500 nM; in the assay with Miapaca-2 cells, 1000 to 10000 nM; in the assay on H2405 cells, 100 to 500 nM.

As to `CCOc1cc(-c2cc(NC(=O)c3ccnc(C(F)(F)F)c3)ccc2C)cc(-c2ccnc(NC(=O)C3CC3)c2)n1` [Example 12], the IC50 in assay [1] lay in the range of 1000 to 10000 nM; in the assay on A375 cells, 100 to 500 nM; with Miapaca-2 cells, 1000 to 10000 nM; with H2405 cells it was 100 to 500 nM.

As for `Cc1cc(F)c(NC(=O)c2ccnc(C(F)(F)F)c2)cc1-c1cncc(-c2ccnc(NC(=O)C3CC3)c2)n1` [Example 271], the IC50 in assay [1] is 500 to 1000 nM; with A375 cells, 500 to 1000 nM; with Miapaca-2 cells, 1000 to 10000 nM; with H2405 cells, 100 to 500 nM.
